# Test results from patent publication US20230265116A1, “DEGRADATION OF (EGFR) BY CONJUGATION OF EGFR INHIBITORS WITH E3 LIGASE LIGAND AND METHODS OF USE” (BEIGENE, LTD., priority 2020, published 2023).
# Read-outs that look alike come from different tables or passages of the source.
# Columns and labels:
# [1] = system: EGFR Del19/T790M/C797S (H1975-clone #28); assay: EGFR degradation HTRF assay, H1975-clone #28 DTC cells; assay type: cell-based
# In short: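 H1975 clones stably overexpressing mutant EGFR, with endogenous EGFR knocked out by sgRNA and homozygosity confirmed by sequencing, were treated 16h at 37° C. with compounds in 0.2% DMSO (top final 10 uM, 5-fold, 8 doses). Lysates were read by HTRF (665/620 nm); DC50 and Dmax came from fitting % degradation versus DMSO control.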
# [2] = biological target: T1, EGFR L858R/T790M/C797S (BaF3-LTC cells) (Homo sapiens, UniProt P00533, C797S/L858R/T790M); assay: EGFR degradation HTRF assay, BaF3-LTC cells; assay type: cell-based
# T1 construct: expressed in transfected cells; host or cells: BaF3
# T1 sequence (P00533 25-1210 T790M/C797S/L858R): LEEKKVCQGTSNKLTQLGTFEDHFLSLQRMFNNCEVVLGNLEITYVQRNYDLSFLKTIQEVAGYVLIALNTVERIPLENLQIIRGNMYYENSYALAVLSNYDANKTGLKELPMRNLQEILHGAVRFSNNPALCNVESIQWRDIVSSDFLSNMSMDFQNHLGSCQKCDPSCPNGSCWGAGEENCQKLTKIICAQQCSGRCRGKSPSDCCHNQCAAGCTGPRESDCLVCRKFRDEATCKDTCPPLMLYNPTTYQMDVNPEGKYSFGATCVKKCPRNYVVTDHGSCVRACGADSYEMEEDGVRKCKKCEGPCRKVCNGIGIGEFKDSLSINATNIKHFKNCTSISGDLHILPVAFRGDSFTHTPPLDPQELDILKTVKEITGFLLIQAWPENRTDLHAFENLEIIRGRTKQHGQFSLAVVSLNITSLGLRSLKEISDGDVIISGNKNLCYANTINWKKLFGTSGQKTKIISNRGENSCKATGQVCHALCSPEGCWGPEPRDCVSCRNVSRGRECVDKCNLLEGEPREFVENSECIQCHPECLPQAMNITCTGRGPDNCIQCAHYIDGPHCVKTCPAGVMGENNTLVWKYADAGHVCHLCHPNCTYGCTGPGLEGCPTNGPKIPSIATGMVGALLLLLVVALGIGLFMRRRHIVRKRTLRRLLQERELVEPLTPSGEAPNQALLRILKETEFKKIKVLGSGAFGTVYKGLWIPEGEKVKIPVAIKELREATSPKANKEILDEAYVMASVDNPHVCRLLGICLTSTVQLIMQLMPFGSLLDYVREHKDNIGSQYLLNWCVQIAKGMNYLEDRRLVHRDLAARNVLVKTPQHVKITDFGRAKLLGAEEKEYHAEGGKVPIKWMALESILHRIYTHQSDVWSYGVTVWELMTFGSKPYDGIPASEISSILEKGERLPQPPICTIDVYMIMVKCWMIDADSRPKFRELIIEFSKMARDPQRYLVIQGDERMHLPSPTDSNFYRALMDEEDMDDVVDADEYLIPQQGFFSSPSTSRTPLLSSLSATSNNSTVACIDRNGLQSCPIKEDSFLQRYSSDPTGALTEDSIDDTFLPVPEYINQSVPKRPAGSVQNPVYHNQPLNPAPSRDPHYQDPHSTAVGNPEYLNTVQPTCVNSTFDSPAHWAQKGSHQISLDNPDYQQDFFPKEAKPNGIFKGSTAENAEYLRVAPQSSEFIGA
# In short: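 EGFR remaining after a 16 h, 37 °C exposure (8 doses, 5-fold steps from 10 uM final, 0.2% DMSO) was quantified by HTRF antibodies in cell lysate. Percent inhibition relative to DMSO control was fitted by four-parameter logistic to give DC50; Dmax denotes maximal degradation.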
# [3] = H1975 # 28 DTC cells; EGFR degradation, IC50 (DC50) from curve fit; read-out: DC50(nM) H1975 # 28 DTC
# [4] = H1975 # 28 DTC cells; maximum percentage of inhibition (degradation)
# [5] = BaF3-LTC cells; EGFR degradation, IC50 (DC50) from curve fit; read-out: DC50(nM) BaF3-LTC
# [6] = BaF3-LTC cells; maximum percentage of inhibition (degradation); read-out: Dmax (%) BaF3-LTC
SMILES,"DC50 [1, 3] [nM]","DC50 [2, 5] [nM]","Dmax [2, 6] [%]","Dmax (%) H1975 # 28 DTC [1, 4]","DC50 ([1]; read-out: DC50(nM) H1975 # 28 DTC; H1975 # 28 DTC cells; EGFR degradation, IC50 (DC50) from curve fit) [nM]","DC50 ([2]; read-out: DC50(nM) BaF3-LTC; BaF3-LTC cells; EGFR degradation, IC50 (DC50) from curve fit) [nM]","Dmax ([2]; read-out: Dmax (%) BaF3-LTC, BaF3-LTC cells; maximum percentage of inhibition (degradation)) [%]"
"CCc1cc(Nc2ncc(Br)c(Nc3ccc4cc(C)ncc4c3P(C)(C)=O)n2)c(OC)cc1N1CCC(N2CCN(C(=O)[C@@H]3CCN(c4cc(F)c([C@H]5CCC(=O)NC5=O)c(F)c4)C3)CC2)CC1 [Example 586, (R)-3-(4-((R)-3-(4-(1-(4-((5-bromo-4-((8-(dimethylphosphoryl)-3-methylisoquinolin-7-yl)amino)pyrimidin-2-yl)amino)-2-ethyl-5-methoxyphenyl)piperidin-4-yl)piperazine-1-carbonyl)pyrrolidin-1-yl)-2,6-difluorophenyl)piperidine-2,6-dione]",0.958,3.85,94.1,84.73%,–,–,–
"CCc1cc(Nc2ncc(Br)c(Nc3ccc4nc(C)ccc4c3P(C)(C)=O)n2)c(OC)cc1N1CCC(N2CCN(C(=O)C3CCN(c4cc(F)c(C5CCC(=O)NC5=O)c(F)c4)CC3)CC2)CC1 (stereo not drawn) [Example 517, 3-(4-(4-(4-(1-(4-((5-bromo-4-((5-(dimethylphosphoryl)-2-methylquinolin-6-yl)amino)pyrimidin-2-yl)amino)-2-ethyl-5-methoxyphenyl)piperidin-4-yl)piperazine-1-carbonyl)piperidin-1-yl)-2,6-difluorophenyl)piperidine-2,6-dione]",0.968,7,91.3,58.8%,–,–,–
"CCc1cc(Nc2ncc(Br)c(Nc3ccc4nc(C)ccc4c3P(C)(C)=O)n2)c(OC2CC2)cc1N1CCC(N2CCN(CCc3cc4oc(=O)n(C5CCC(=O)NC5=O)c4cc3F)CC2)CC1 (stereo not drawn) [Example 601, 3-(6-(2-(4-(1-(4-((5-bromo-4-((5-(dimethylphosphoryl)-2-methylquinolin-6-yl)amino)pyrimidin-2-yl)amino)-5-cyclopropoxy-2-ethylphenyl)piperidin-4-yl)piperazin-1-yl)ethyl)-5-fluoro-2-oxobenzo[d]oxazol-3(2H)-yl)piperidine-2,6-dione]",0.632,8.64,89.5,77.35%,–,–,–
"CCOc1cc(N2CCC(N3CCN(CCc4c(F)ccc5c4n(CC)c(=O)n5C4CCC(=O)NC4=O)CC3)CC2)c(CC)cc1Nc1ncc(Br)c(Nc2ccc3nc(CC)ccc3c2P(C)(C)=O)n1 (stereo not drawn) [Example 558, 3-(4-(2-(4-(1-(4-((5-bromo-4-((5-(dimethylphosphoryl)-2-ethylquinolin-6-yl)amino)pyrimidin-2-yl)amino)-5-ethoxy-2-ethylphenyl)piperidin-4-yl)piperazin-1-yl)ethyl)-3-ethyl-5-fluoro-2-oxo-2,3-dihydro-1H-benzo[d]imidazol-1-yl)piperidine-2,6-dione]",2.59,13.1,–,85.18%,–,–,–
"CCc1ccc2c(P(C)(C)=O)c(Nc3nc(Nc4cc(CC)c(N5CCC(N6CCN(C(=O)Cc7c(C)ccc8c7C(C)(C)C(=O)N8C7CCC(=O)NC7=O)CC6)CC5)cc4OC)ncc3Br)ccc2n1 (stereo not drawn) [Example 658, 3-(4-(2-(4-(1-(4-((5-bromo-4-((5-(dimethylphosphoryl)-2-ethylquinolin-6-yl)amino)pyrimidin-2-yl)amino)-2-ethyl-5-methoxyphenyl)piperidin-4-yl)piperazin-1-yl)-2-oxoethyl)-3,3,5-trimethyl-2-oxoindolin-1-yl)piperidine-2,6-dione]",0.59,4.46,84.2,71.03 7%,–,–,–
"CCc1cc(Nc2ncc(Br)c(Nc3ccc4nc(C)ccc4c3P(C)(C)=O)n2)c(OC)cc1N1CCC(N2CCN(C(=O)Cc3cccc4c3n(C)c(=O)n4C3CCC(=O)NC3=O)CC2)CC1 (stereo not drawn) [Example 697, 3-(4-(2-(4-(1-(4-((5-bromo-4-((5-(dimethylphosphoryl)-2-methylquinolin-6-yl)amino)pyrimidin-2-yl)amino)-2-ethyl-5-methoxyphenyl)piperidin-4-yl)piperazin-1-yl)-2-oxoethyl)-3-methyl-2-oxo-2,3-dihydro-1H-benzo[d]imidazol-1-yl)piperidine-2,6-dione]",1.19,9.65,94.1,71.39%,–,–,–
"CCOc1cc(N2CCC(N3CCN(C(=O)CCC4CN(c5cccc6c5oc(=O)n6C5CCC(=O)NC5=O)C4)CC3)CC2)c(CC)cc1Nc1ncc(Br)c(Nc2ccc3nc(CC)ccc3c2P(C)(C)=O)n1 (stereo not drawn) [Example 625, 3-(7-(3-(3-(4-(1-(4-((5-bromo-4-((5-(dimethylphosphoryl)-2-ethylquinolin-6-yl)amino)pyrimidin-2-yl)amino)-5-ethoxy-2-ethylphenyl)piperidin-4-yl)piperazin-1-yl)-3-oxopropyl)azetidin-1-yl)-2-oxobenzo[d]oxazol-3(2H)-yl)piperidine-2,6-dione]",–,–,–,80.1%,1.86,11,88.8

# The remaining molecules from weak to strong by DC50 [1, 3], led by results:
"DC50 [1, 3] [nM]","DC50 [2, 5] [nM]","Dmax [2, 6] [%]",SMILES,"Dmax (%) H1975 # 28 DTC [1, 4]","DC50 ([1]; read-out: DC50(nM) H1975 # 28 DTC; H1975 # 28 DTC cells; EGFR degradation, IC50 (DC50) from curve fit) [nM]","DC50 ([2]; read-out: DC50(nM) BaF3-LTC; BaF3-LTC cells; EGFR degradation, IC50 (DC50) from curve fit) [nM]","Dmax ([2]; read-out: Dmax (%) BaF3-LTC, BaF3-LTC cells; maximum percentage of inhibition (degradation)) [%]"
2.39,16.2,89.6,"CCc1cnc2c(P(C)(C)=O)c(Nc3nc(Nc4cc(CC)c(N5CCC(N6CCN(C(=O)[C@@H]7CCN(c8cc(F)c([C@H]9CCC(=O)NC9=O)c(F)c8)C7)CC6)CC5)cc4OC)ncc3Br)ccc2n1 [Example 538, (R)-3-(4-((R)-3-(4-(1-(4-((5-bromo-4-((5-(dimethylphosphoryl)-2-ethylquinoxalin-6-yl)amino)pyrimidin-2-yl)amino)-2-ethyl-5-methoxyphenyl)piperidin-4-yl)piperazine-1-carbonyl)pyrrolidin-1-yl)-2,6-difluorophenyl)piperidine-2,6-dione]",80.57%,–,–,–
1.09,6.44,94.1,"CCc1ccc2c(P(C)(C)=O)c(Nc3nc(Nc4cc(C)c(N5CCC(N6CCN(C(=O)[C@@H]7CCN(c8cc(F)c([C@H]9CCC(=O)NC9=O)c(F)c8)C7)CC6)CC5)cc4OC)ncc3Br)ccc2n1 [Example 539, (R)-3-(4-((R)-3-(4-(1-(4-((5-bromo-4-((5-(dimethylphosphoryl)-2-ethylquinolin-6-yl)amino)pyrimidin-2-yl)amino)-5-methoxy-2-methylphenyl)piperidin-4-yl)piperazine-1-carbonyl)pyrrolidin-1-yl)-2,6-difluorophenyl)piperidine-2,6-dione]",84.42%,–,–,–
0.737,5.12,91.7,"CCc1cc(Nc2ncc(Br)c(Nc3ccc4nc(NC5CC5)ccc4c3P(C)(C)=O)n2)c(OC)cc1N1CCC(N2CCN(CCc3ccc4c(c3)oc(=O)n4C3CCC(=O)NC3=O)CC2)CC1 (stereo not drawn) [Example 633, 3-(6-(2-(4-(1-(4-((5-bromo-4-((2-(cyclopropylamino)-5-(dimethylphosphoryl)quinolin-6-yl)amino)pyrimidin-2-yl)amino)-2-ethyl-5-methoxyphenyl)piperidin-4-yl)piperazin-1-yl)ethyl)-2-oxobenzo[d]oxazol-3(2H)-yl)piperidine-2,6-dione]",70.09%,–,–,–
0.624,4.07,–,"COc1cc(N2CCC(N3CCN(C(=O)[C@@H]4CCN(c5cc(F)c([C@H]6CCC(=O)NC6=O)c(F)c5)C4)CC3)CC2)c(C)cc1Nc1ncc(Br)c(Nc2ccc3nc(C)c(F)cc3c2P(C)(C)=O)n1 [Example 732, (R)-3-(4-((R)-3-(4-(1-(4-((5-bromo-4-((5-(dimethylphosphoryl)-3-fluoro-2-methylquinolin-6-yl)amino)pyrimidin-2-yl)amino)-5-methoxy-2-methylphenyl)piperidin-4-yl)piperazine-1-carbonyl)pyrrolidin-1-yl)-2,6-difluorophenyl)piperidine-2,6-dione]",86.49%,–,–,–
